In brackets after ≈: the same amount, converted by molar mass.
What follows are molecules tested on gastric acid secretion (assay: Inhibition of basal Gastric Acid Secretion (Acute Gastric Fistula Rat)). Settings: 2 h, 10 mg./kg. intraduodenal, B: 120 minute collection, read-out: % Inhibition Total Acid Output.
Assay type: in vivo, Female Sprague-Dawley rats
Description: Inhibition of basal gastric acid secretion was determined in the acute gastric fistula rat as follows. Female Sprague-Dawley rats (Charles River Laboratories) weighing 140-160 grams are fasted in individual cages for 18-24 hours. The rats are then lightly anesthetized with ether and their front teeth extracted to avoid destruction of the plastic cannula. A midline incision is then made and the stomach and duodenum exposed. A flanged polyvinyl tube is inserted into the fundic portion of the stomach and secured with a purse string suture line using 4-0 Mersilene. The rat is then dosed by injection of the compound into the duodenum (1.0 ml. per 100 gram body weight). After dosing, the abdominal wall and skin are closed using metal wound clips. The rat is replaced in a cage containing a longitudinal slit to allow the polyvinyl tube to hang freely. An 8 ml. plastic collecting tube is attached to the flanged cannula and hangs freely below the cage. The first 30 minute sample is discarded designating this time as zero. The collecting tube is attached again and samples removed at the end of 60 and 120 minutes. Those samples are referred to as "A" and "B" in the table. The hourly samples are then transferred to a 15 ml. centrifuge tube and centrifuged for 5-10 minutes. Total and sediment volume are then recorded with the supernatant volume being used as volume of secretion. A 1 ml. or less aliquot is then removed and placed in a 50 ml. beaker containing 10 ml. of distilled water. This sample is then titrated using 0.01N NaOH to pH 7.0 using a Beckman zeromatic pH meter. Volume, titratable acidity (meq/L) and total acid output (μ eq/hour) are recorded. Percent inhibition is determined by comparison with the appropriate control. Groups of three rats were used. All compounds are administered in vehicle (0.5% methocel, 0.4% Tween 80, saline) at a constant volume of 1 ml./100 gram rat. Samples were sonicated with care to prevent overheating.

Row | SMILES | inhibition in vivo at 10 mg/kg [%]
1 | CCCCCC/C=C/[C@@H]1CCC(=O)[C@H]1CC(=O)O (relative stereo) [9-oxo-3,4,5,6,7-pentanor-13-trans-prostenoic acid] | 64

Same assay, conditions: 2 h, 10 mg./kg. intraduodenal, B: 120 minute collection, read-out: % Inhibition Total Acidity

Row | SMILES | inhibition in vivo at 10 mg/kg [%]
2 | CCCCCC/C=C/[C@@H]1CCC(=O)[C@H]1CC(=O)O (relative stereo) [9-oxo-3,4,5,6,7-pentanor-13-trans-prostenoic acid] | 48

These molecules were tested on diastolic blood pressure (assay: Prostaglandin-like hypotensive activity in anesthetized rats (minimal dose for about 10 mm. decrease in diastolic blood pressure)). Settings: Rattus norvegicus; intravenous; decrease of about 10 mm. in diastolic blood pressure.
Assay type: in vivo, Male Wistar strain rats
Method in brief: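 Male Wistar rats (~250 g), pentobarbital 30 mg./kg. i.v. and hexamethonium 2 mg./kg. i.v., iliac artery cannulated for blood pressure. Compounds in saline-Tween 80 given i.v. at 0.1–10.0 mg./kg.; value is the minimal dose giving ~10 mm. drop in diastolic pressure.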

Row | SMILES | minimal effective dose [mg/kg]
3 | CCCCCC/C=C/[C@@H]1CCC(=O)[C@H]1CCCCCCC(=O)OCCN(C)C (relative stereo) [β-dimethylaminoethyl 9-oxo-13-trans-prostenoate] | 0.5 to 2
4 | CCCCCC/C=C/[C@H]1CCC(O)[C@@H]1CCCCCCC(=O)O (stereo partly drawn) [9-hydroxy-13-trans-prostenoic acid, 9α- and 9β-hydroxy-13-trans-prostenoic acid] | 2
5 | CCCCCC/C=C/[C@@H]1CCC(=O)[C@H]1CC(=O)O (relative stereo) [9-oxo-3,4,5,6,7-pentanor-13-trans-prostenoic acid] | 2

Each molecule was assayed on Trichophyton tonsurans NIH 662 (assay: agar-dilution streak-plate antimicrobial assay). Settings: NIH662, read-out: Minimal inhibitory conc. (3).
Assay type: cell-based
Method in brief: (§1)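 Complete absence of visible growth on the streak defines the MIC, given in µg/ml. Each compound, made up at 2.5 mg/ml and diluted two-fold, is incorporated 1:10 into organism-appropriate nutrient agar before loop inoculation and incubation.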

Row | MIC [µg/mL] | SMILES
6 | 250 (≈ 635 µM) | CCCCCC/C=C/[C@@H]1CCC(=O)[C@H]1CCCCCCC(=O)OCCN(C)C (relative stereo) [β-dimethylaminoethyl 9-oxo-13-trans-prostenoate]
7 | 50 (≈ 154 µM) | CCCCCC/C=C/[C@H]1CCC(O)[C@@H]1CCCCCCC(=O)O (stereo partly drawn) [9-hydroxy-13-trans-prostenoic acid, 9α- and 9β-hydroxy-13-trans-prostenoic acid]
8 | 125 (≈ 495 µM) | CCCCCC/C=C/[C@@H]1CCC(=O)[C@H]1CC(=O)O (relative stereo) [9-oxo-3,4,5,6,7-pentanor-13-trans-prostenoic acid]

What follows are molecules tested on Trichophyton rubrum E 97 (assay: agar-dilution streak-plate antimicrobial assay). Settings: E97, read-out: Minimal inhibitory conc. (5).
Assay type: cell-based
Method in brief: as §1

Row | MIC [µg/mL] | SMILES
9 | 250 (≈ 991 µM) | CCCCCC/C=C/[C@@H]1CCC(=O)[C@H]1CC(=O)O (relative stereo) [9-oxo-3,4,5,6,7-pentanor-13-trans-prostenoic acid]

Each molecule was assayed on Microsporum canis ATCC 10214 (assay: agar-dilution streak-plate antimicrobial assay). Settings: ATCC10214, read-out: Minimal inhibitory conc. (1).
Assay type: cell-based
Method in brief: as §1

Row | MIC [µg/mL] | SMILES
10 | 250 (≈ 635 µM) | CCCCCC/C=C/[C@@H]1CCC(=O)[C@H]1CCCCCCC(=O)OCCN(C)C (relative stereo) [β-dimethylaminoethyl 9-oxo-13-trans-prostenoate]
11 | 50 (≈ 154 µM) | CCCCCC/C=C/[C@H]1CCC(O)[C@@H]1CCCCCCC(=O)O (stereo partly drawn) [9-hydroxy-13-trans-prostenoic acid, 9α- and 9β-hydroxy-13-trans-prostenoic acid]
12 | 250 (≈ 991 µM) | CCCCCC/C=C/[C@@H]1CCC(=O)[C@H]1CC(=O)O (relative stereo) [9-oxo-3,4,5,6,7-pentanor-13-trans-prostenoic acid]

What follows are molecules tested on Mycobacterium smegmatis ATCC 606 (assay: agar-dilution streak-plate antimicrobial assay). Settings: Mycolicibacterium smegmatis, ATCC606, read-out: Minimal inhibitory conc. (6).
Assay type: cell-based
Method in brief: as §1

Row | MIC [µg/mL] | SMILES
13 | 10 (≈ 25.4 µM) | CCCCCC/C=C/[C@@H]1CCC(=O)[C@H]1CCCCCCC(=O)OCCN(C)C (relative stereo) [β-dimethylaminoethyl 9-oxo-13-trans-prostenoate]
14 | 25 (≈ 77 µM) | CCCCCC/C=C/[C@H]1CCC(O)[C@@H]1CCCCCCC(=O)O (stereo partly drawn) [9-hydroxy-13-trans-prostenoic acid, 9α- and 9β-hydroxy-13-trans-prostenoic acid]

These molecules were tested on Trichophyton mentagrophytes E 11 (assay: agar-dilution streak-plate antimicrobial assay). Settings: E11, read-out: Minimal inhibitory conc. (4).
Assay type: cell-based
Method in brief: as §1

Row | MIC [µg/mL] | SMILES
15 | 50 (≈ 154 µM) | CCCCCC/C=C/[C@H]1CCC(O)[C@@H]1CCCCCCC(=O)O (stereo partly drawn) [9-hydroxy-13-trans-prostenoic acid, 9α- and 9β-hydroxy-13-trans-prostenoic acid]
16 | 250 (≈ 991 µM) | CCCCCC/C=C/[C@@H]1CCC(=O)[C@H]1CC(=O)O (relative stereo) [9-oxo-3,4,5,6,7-pentanor-13-trans-prostenoic acid]

What follows are molecules tested on Microsporum gypseum ATCC 14683 (assay: agar-dilution streak-plate antimicrobial assay). Settings: Nannizzia gypsea, ATCC14683, read-out: Minimal inhibitory conc. (2).
Assay type: cell-based
Method in brief: as §1

Row | MIC [µg/mL] | SMILES
17 | 25 (≈ 77 µM) | CCCCCC/C=C/[C@H]1CCC(O)[C@@H]1CCCCCCC(=O)O (stereo partly drawn) [9-hydroxy-13-trans-prostenoic acid, 9α- and 9β-hydroxy-13-trans-prostenoic acid]
18 | 250 (≈ 991 µM) | CCCCCC/C=C/[C@@H]1CCC(=O)[C@H]1CC(=O)O (relative stereo) [9-oxo-3,4,5,6,7-pentanor-13-trans-prostenoic acid]

What follows are molecules tested on Streptococcus pyogenes C 203 (assay: agar-dilution streak-plate antimicrobial assay). Settings: C203, read-out: Minimal inhibitory conc. (8).
Assay type: cell-based
Method in brief: as §1

Row | MIC [µg/mL] | SMILES
19 | 10 (≈ 25.4 µM) | CCCCCC/C=C/[C@@H]1CCC(=O)[C@H]1CCCCCCC(=O)OCCN(C)C (relative stereo) [β-dimethylaminoethyl 9-oxo-13-trans-prostenoate]
20 | 25 (≈ 77 µM) | CCCCCC/C=C/[C@H]1CCC(O)[C@@H]1CCCCCCC(=O)O (stereo partly drawn) [9-hydroxy-13-trans-prostenoic acid, 9α- and 9β-hydroxy-13-trans-prostenoic acid]

These molecules were tested on Staphylococcus aureus Rose ATCC 14154 (assay: agar-dilution streak-plate antimicrobial assay). Settings: ATCC14154, read-out: Minimal inhibitory conc. (7).
Assay type: cell-based
Method in brief: as §1

Row | MIC [µg/mL] | SMILES
21 | 50 (≈ 127 µM) | CCCCCC/C=C/[C@@H]1CCC(=O)[C@H]1CCCCCCC(=O)OCCN(C)C (relative stereo) [β-dimethylaminoethyl 9-oxo-13-trans-prostenoate]
22 | 50 (≈ 154 µM) | CCCCCC/C=C/[C@H]1CCC(O)[C@@H]1CCCCCCC(=O)O (stereo partly drawn) [9-hydroxy-13-trans-prostenoic acid, 9α- and 9β-hydroxy-13-trans-prostenoic acid]

Reference: patent publication US4044043A, “Derivatives of 9-oxo-13-trans-prostenoic acid esters” (American Cyanamid Company, priority 1975, dated 1977)
